Patent US6756399B2, “Use of lipoxygenase inhibitors and PPAR ligands as anti-cancer therapeutic and intervention agents” (The United States of America as represented by the …, priority 2001, dated 2004)
Entries after “also recorded” stand apart in the source; their conditions may differ.

Experiments:
[1] = test system: A549, H510, H345, and N417 lung cancer cell lines; assay: Growth inhibition (MTT, BrdU) in lung cancer cell lines; format: cell-based; settings: all tested cell lines (A549, H510, H345, N417)
Description: (§1) Lung cancer cell lines used for PPAR analysis included A549, H510, H345, and N417. The FLAP inhibitor: MK886 and COX inhibitor: indomethacin, and combinations thereof, were used as AA inhibitors. PPARs for the analysis included PGJ2 (γ ligand); ciglitazone (γ agonist); LY171882 (γ receptor activator); and WY 14643 (α activator). In order to analyze PPARs in lung cancer cells, growth inhibition (MTT, BrdU); apoptosis (Caspase 3/7 and M30 IHC); and mRNA Northern analyses were performed.

[2] = test system: H510 cell line; assay: M30 immunohistochemistry for apoptosis, H510; format: cell-based
Description: as §1
(§2) M30 Immunohistochemistry was performed to test for apoptosis in the various lung cancer cell lines. […] Apoptosis was also observed in the H345 and N417 cell lines, but PPAR induction was low and no significant increase in PPAR protein expression was observed when tested in combination with PGJ2. […] In summary, combinations of FLAP inhibitors, cyclooxygenase inhibitors, and PPARγ ligands generally had additive effects in reducing lung cancer cell line growth; this generally correlated with measures of enhanced apoptosis.

[3] = test system: PPARγ; assay: Northern analysis, PPARγ mRNA in A549; format: cell-based
Description: as §1
(§3) Northern analysis was performed with untreated cells and cells treated with AA inhibitors: MK886, indomethacin, or the combination of MK886 and indomethacin. […] There was also no expression after 24 hours of exposure to AA inhibitors, confirming previous Northern analyses. […] In the H510 cell line, no expression for PPARγ was observed.

[4] = test system: PPARγ; assay: Northern analysis, PPARγ mRNA in H345; format: cell-based
Description: as §1, §3

[5] = test system: ZR-75 breast cancer cell line; assay: Proliferation assay, breast cancer cell line ZR-75; format: cell-based; settings: ZR-75, compared to vehicle control
Description: (§4) Breast cancer cell line ZR-75 was grown in the presence of 5 μM inhibitors for 24 and 48 hrs, total RNA was isolated and RT-PCR performed for PPARα and PPARγ using specific primers. Results are presented as percent of control after normalizing with the actin values. The experiment was repeated three times. The error bars indicate standard deviation. […] All values were determined by assessment of % growth inhibition calculated from the optical density value, with a minimum of 6 replicates from at least three different experiments per cell line. The ligands included WY-14643 (open circles); LY 171883 (closed circles); fenofibrate (triangles); clofibrate (diamonds).
Cell lines used in the study were obtained from the American Type Culture Collection (Rockville, Md.). They included MCF-7, ZR-75, T47 D; SKBR-3, and MB-231. The cells were maintained in RPMI-1640, or MEM Zinc option medium, supplemented with 5% fetal bovine serum (FBS), penicillin (50 units/ml) and streptomycin (50 μg/ml) (Life Technologies, Gaithersburg, Md.), in a humidified atmosphere of 95% air and 5% CO2 at 37° C.

[6] = test system: T47D breast cancer cell line; assay: Proliferation assay, breast cancer cell line T47D; format: cell-based; settings: compared to vehicle control
Description: as §4
(§5) (A) Northern blot analysis for PPARγ (1.8 Kb), of breast cancer cell line T47D treated with 5 μM MK 886 for 6, 12, 24 hrs and untreated control. RNA was isolated as described in Methods, and […] of total RNA was loaded per lane. Ethidium bromide staining of 28S rRNA was used to check for equal loading and RNA integrity (lower panel). (B) RNA isolated from T47D cells treated with 5 μM MK 886 for different time periods were subjected to RT-PCR using specific primers for PPARγ. The PCR products were normalized to actin gene and 18S. PCR products were quantified by densitometry and the data points presented are expressed as percent of control, and represent mean and SEM of three experiments. […]

[7] = test system: H345 cell line; assay: Apo-1 Caspase 3/7 apoptosis assay, H345; format: cell-based
Description: as §1
(§6) Apoptosis was determined at particular time points using the Apo-1Caspase 3/7 assay.

[8] = test system: A549 cell line; assay: M30 immunohistochemistry for apoptosis, A549; format: cell-based
Description: as §1, §2

[9] = test system: PPARα; assay: RT-PCR for PPARα mRNA in breast cancer cell line ZR-75; format: cell-based; settings: ZR-75, 5 μM, 24 and 48 hours
Description: as §4
(§7) Cells were grown for 24 hrs or 48 hrs in the presence or absence of inhibitors at 5 μM concentration. RNA was isolated using the Trizol method (Life Technologies, Gaithersburg, Md.), and RT-PCR was performed using specific primers for PPAR and actin control genes.
(§8) Forward (F) and reverse (R) primers used to detect PPAR cDNAs were: […]
(§9) The ethidium bromide stained image was digitized and the optical density calculated using the NIH Image program. Values were normalized with the actin value obtained with commercially available primers (Clontech Inc., Palo Alto, Calif. ). These experiments were repeated three times.

[10] = test system: PPARγ; assay: RT-PCR for PPARγ mRNA in breast cancer cell line ZR-75; format: cell-based; settings: ZR-75, 5 μM, 24 and 48 hours
Description: as §4, §7, §8, §9

[11] = test system: H510 cell line; assay: Apo-1 Caspase 3/7 apoptosis assay, H510; format: cell-based
Description: as §1, §6

[12] = test system: 15-HETE; assay: 15-HETE production after exposure to FLAP inhibitor; format: cell-based; settings: in response to exposure to MK 886
[13] = test system: PPARγ; assay: Northern blot analysis for PPARγ in T47D cells; format: cell-based, human; settings: 5 μM MK886, 0, 6, 12, 24 hours
Description: as §5, with “experiments. (C) Breast cancer cell line T47D, was incubated with various concentrations of MK886 (circles) and then analyzed using a proliferation assay. After 12 hr incubation, the inhibitors were removed and replaced by media alone (open circles), or media with 4 μM LY 171883 (closed circles). LY 171883 in the presence of media without the FLAP inhibitor is shown (stars).” for “experiments.”
After treatment for the indicated time points (5 μM MK886 at 0, 6, 12, 24 hours), cells were washed with PBS and total RNA was extracted using the RNeasy Mini Kit (QUIAGEN Inc., Valencia, Calif.). […] Equal loading and integrity of RNA was monitored by ethidium bromide staining (FIG. 2A). […]

[14] = test system: PPARγ; assay: Semi-quantitative RT-PCR for PPARγ in T47D cells; format: cell-based; settings: 5 μM MK886, different time periods
Description: (A) Northern blot analysis for PPARγ (1.8 Kb), of breast cancer cell line T47D treated with 5 μM MK 886 for 6, 12, 24 hrs and untreated control. RNA was isolated as described in Methods, and […] of total RNA was loaded per lane. Ethidium bromide staining of 28S rRNA was used to check for equal loading and RNA integrity (lower panel). (B) RNA isolated from T47D cells treated with 5 μM MK 886 for different time periods were subjected to RT-PCR using specific primers for PPARγ. The PCR products were normalized to actin gene and 18S. PCR products were quantified by densitometry and the data points presented are expressed as percent of control, and represent mean and SEM of three experiments. (C) Breast cancer cell line T47D, was incubated with various concentrations of MK886 (circles) and then analyzed using a proliferation assay. After 12 hr incubation, the inhibitors were removed and replaced by media alone (open circles), or media with 4 μM LY 171883 (closed circles). LY 171883 in the presence of media without the FLAP inhibitor is shown (stars). After an additional 24 hr incubation time, the experiments were terminated. All values were determined by assessment of % growth inhibition calculated from the optical density value, with a minimum of 6 replicates from at least three different experiments. The error bars indicate standard deviation. […]

[15] = test system: A549 cell line; assay: Apo-1 Caspase 3/7 apoptosis assay, A549; format: cell-based
Description: as §1, §6

[16] = test system: N417 cell line; assay: Apo-1 Caspase 3/7 apoptosis assay, N417; format: cell-based
Description: as §1, §6

[17] = test system: PPARα; assay: Northern analysis, PPARα mRNA in A549; format: cell-based
Description: as §1, §3

[18] = test system: PPARδ; assay: Northern analysis, PPARδ mRNA in A549; format: cell-based
Description: as §1, §3

CCCCC/C=C/C=C1/C(=O)C=C[C@@H]1C/C=C\CCCC(=O)O [PGJ2, 15-Deoxy-Δ^12,14-Prostaglandin J2]
growth of lung cancer cell lines [1]: reduced growth in a dose dependent manner
apoptosis (M30 immunohistochemistry) [2]: apoptosis in the H510 cell line was observed
PPARγ mRNA (Northern) [3]: mRNA decreases to those levels observed with control
PPARγ expression (Northern) [4]: down regulated mRNA

CCCc1c(OCCCCc2nnn[nH]2)ccc(C(C)=O)c1O [LY 171883]
breast tumor cell growth [5]: dose dependent growth reduction
breast tumor cell growth [6]: dose dependent growth reduction
apoptosis (Caspase 3/7) [7]: neither LY171882 or WY 14643 (α activator) induced apoptosis
apoptosis (M30 immunohistochemistry) [8]: Some apoptosis also occurred

CC(Cc1ccc(O)c(O)c1)C(C)Cc1ccc(O)c(O)c1 (stereo not drawn) [NDGA, Nordihydroguaiaretic acid]
PPARα expression [9]: up-regulation
PPARγ expression [10]: up-regulation

COc1ccc2c(c1)c(CC(=O)O)c(C)n2C(=O)c1ccc(Cl)cc1 [indomethacin]
growth of lung cancer cell lines [1]: no effect on growth, even at a concentration of greater than 10 μM
apoptosis (Caspase 3/7) [11]: two fold induction of apoptosis
apoptosis (M30 immunohistochemistry) [2]: apoptosis in the H510 cell line was observed
PPARγ mRNA (Northern) [3]: Up-regulation of PPARγ

CCOC(=O)C(C)(C)Oc1ccc(Cl)cc1 [clofibrate, 2-(4-chlorophenoxy)-2-methylpropanoic acid ethyl ester]
breast tumor cell growth [5]: dose dependent growth reduction
breast tumor cell growth [6]: dose dependent growth reduction

CC(C)c1ccc2c(c1)c(SC(C)(C)C)c(CC(C)(C)C(=O)O)n2Cc1ccc(Cl)cc1 [MK886, 3-[1-(4-chlorobenzyl)-3-t-butyl-thio-5-isopropylindol-2-yl]-2,2-dimethylpropanoic acid]
PPARα expression [9]: up-regulation
PPARγ expression [10]: up-regulation
15-HETE production [12]: large increase
PPARγ expression (Northern blot) [13]: induction of PPARγ is evident within six hours; also recorded: PPARγ expression levels increase
PPARγ induction (semi-quantitative RT-PCR) [14]: induction of PPARγ is more protracted
growth of lung cancer cell lines [1]: inhibited all tested cell lines in a dose dependent manner ranging from 0.25 to 2.0 μM
apoptosis (Caspase 3/7) [15]: increased apoptosis
apoptosis (Caspase 3/7) [16]: two fold increase in apoptosis
apoptosis (Caspase 3/7) [11]: two fold induction of apoptosis
apoptosis (Caspase 3/7) [7]: induced apoptosis
apoptosis (M30 immunohistochemistry) [2]: apoptosis in the H510 cell line was observed
PPARγ mRNA (Northern) [3]: Up-regulation of PPARγ
PPARα mRNA (Northern) [17]: no mRNA for PPARα
PPARδ mRNA (Northern) [18]: some mRNA observed for PPARδ
PPARγ expression (Northern) [4]: PPARγ expression was induced

CC1(COc2ccc(CC3SC(=O)NC3=O)cc2)CCCCC1 (racemic) [ciglitazone, (±)-5-[4-(1-Methylcyclohexylmethoxy)-benzyl] thiazolidine-2,4-dione]
growth of lung cancer cell lines [1]: reduced growth in a dose dependent manner
apoptosis (Caspase 3/7) [7]: induced apoptosis
